Laboratory results as given in PubChem BioAssay AID2060904 (Molecular Pharmacology Branch, DTP, NCI, 2025).
pIC50: −log10 of the molar value.

System: 349418-098-R-PDC complex spheroid viability
Experiment: Anticancer human tumor 349418-098-R-PDC patient-derived lung adenocarcinoma cell line growth inhibition [RAS]
Conditions: for pIC50: curve of first compound; for viability, T/C: stronger effect = lower value
Excerpt: RAS pathway inhibitors in Combinations in Complex Spheroids
A high-throughput screen of multi-cell type tumor spheroids was designed to identify active combinations of RAS pathway inhibitors and targeted small molecules. Complex spheroids include a stromal component modeled by human endothelial cells (HUVEC) and fibroblasts modeled by human mesenchymal stem cells (MSCs). The concentration ranges selected for each drug and investigational agent were based upon clinically achievable concentrations if the clinical Cmax of the agent was known.
Compounds. The drugs and investigational agents: abemaciclib (NSC768073), cobimetinib (NSC768068), divarasib (GDC6063, NSC841802), docetaxel (NSC628503), GDC-1971 (RLY-1971, NSC841576), gemcitabine (NSC613327), inavolisib (NSC800729), ipatasertib (NSC767898), KB-0742 (NSC834161), MRTX-1133 (NSC836407), osimertinib (NSC779217), RMC-4630 (NSC839698), RMC-6236 (NSC851965), RMC-6291 (NSC852671), Ro-3306 (NSC812927), sapanisertib (NSC764658), SN-38 (NSC673596), staurosporine (NSC755774), SY5609 (NSC837396), and tovorafenib (DAY101, NSC766906), were obtained from the National Cancer Institute (NCI) Developmental Therapeutics Program Chemical Repository. The FDA-approved anticancer drug set is available from the NCI Developmental Therapeutics Program. […] The stock solutions were prepared in dimethyl sulfoxide (DMSO, Sigma-Aldrich, St. Louis, MO, cat. D2650) at 800-fold the tested concentration and stored at -70 degrees C prior to their use. All drugs and investigational agents were tested over a range starting from a high concentration at or near the clinical Cmax and decreasing in half-log increments. If the clinical Cmax for an agent had not been determined, the highest concentration tested was 10 microM.
Cell Culture. All cells were maintained in an incubator at 37 degrees C and 5% CO2 with 95% humidity. The PDC lines were cultured according to standard operating procedures established by the NCI PDMR. All PDCs were thawed and cultured in Matrigel-coated flasks prepared with a working solution of 1X Ham's F-12 nutrient mix, without supplementation (Invitrogen, Waltham, MA, cat. 11765054), 100 U/mL penicillin-streptomycin (Invitrogen, cat. 15140122), and 2.5% Matrigel (Corning Inc., Corning, NY, cat. 354248) for the first three passages. The 362531-283-R-J2-PDC and 782815-120-R-J1-PDC lines were cultured in 6C/Colon 1B media, which includes advanced DMEM/F-12 (Thermo Fisher Scientific, cat. 12634028), 10 mM HEPES (Thermo Fisher Scientific, cat. 15630080), 1X GlutaMAX supplement (Thermo Fisher Scientific, cat. 35050061), 0.1 mg/mL primocin (InvivoGen, San Diego, CA, cat. ant-pm-2), 10% defined fetal bovine serum, heat inactivated (HyClone Laboratories Inc., Logan, UT, cat. SH30070.03HI), 50% L-WRN conditioned media (ATCC, cat. CRL-3276), 1.25 mM N-Acetyl-L-cysteine (Sigma-Aldrich, cat. A9165), 10 mM nicotinamide (Sigma-Aldrich, cat. N0636), 1X B-27 supplement (Thermo Fisher Scientific, cat. 17504044), 1X N-2 supplement (Thermo Fisher Scientific, cat. 17502048), 50 ng/mL human EGF (Thermo Fisher Scientific, cat. PHG0311), and 10 microM Y-27632 dihydrochloride (Tocris Bioscience, cat. 1254). The K12877-001-R-J1-PDC line was cultured in 6I media, which includes all 6C/Colon 1B media plus 10 ng/mL human FGF-10 (PeproTech, cat. 100-26), 1 ng/mL human FGF-2 (PeproTech, cat. 100-18B), 1 µM prostaglandin E2 (Tocris Bioscience, cat. 2296), […] hydrocortisone (Sigma-Aldrich, cat. H4001), and […] bovine insulin (Sigma-Aldrich, cat. I6634). The K86415-001-R-J1-PDC line was cultured in 6D media, which includes all 6C/Colon 1B media components minus the L-WRN conditioned media. The 485176-168-R4-J1-PDC was cultured in PANC media, which includes all 6C/Colon 1B media plus 100 ng/mL human FGF-10 (PeproTech, cat. 100-26), 500 nM SB-431542 (Selleckchem, cat. S1067), and 10 nM gastrin (Tocris Bioscience, cat. 3006). […]

[1] = second compound 0.0316 µM, first compound 0.0316 µM
[2] = second compound 0.0316 µM, first compound 0.1 µM
[3] = second compound 0.1 µM, first compound 0.0316 µM
[4] = second compound 0.1 µM, first compound 0.1 µM
[5] = second compound 0.316 µM, first compound 0.0316 µM
[6] = second compound 0.316 µM, first compound 0.1 µM
[7] = second compound 1 µM, first compound 0.0316 µM
[8] = second compound 1 µM, first compound 0.1 µM
[9] = second compound 3.16 µM, first compound 0.0316 µM
[10] = second compound 3.16 µM, first compound 0.1 µM
[11] = second compound 10 µM, first compound 0.0316 µM
[12] = second compound 10 µM, first compound 0.1 µM
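Note: spheroids exposed to compound for seven days before viability readout.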

## CC(C)n1nc(-c2ccc3oc(N)nc3c2)c2c(N)ncnc21 + C#Cc1c(F)ccc2cc(O)cc(-c3ncc4c(N5CC6CCC(C5)N6)nc(OCC56CCCN5CC(F)C6)nc4c3F)c12
Second compound 0.0316 µM
  pIC50: 8.24
Second compound 0.1 µM
  pIC50: 8.43
Second compound 0.316 µM
  pIC50: 8.28
Second compound 1 µM
  pIC50: 8.18
Second compound 3.16 µM
  pIC50: 8.43
Second compound 10 µM
  pIC50: 8.80
Second compound 0.0316 µM, first compound 0.000316 µM
  viability, T/C: 98.7%
Second compound 0.0316 µM, first compound 0.001 µM
  viability, T/C: 132%
Second compound 0.0316 µM, first compound 0.00316 µM
  viability, T/C: 90.5%
Second compound 0.0316 µM, first compound 0.01 µM
  viability, T/C: 15.3%
[1]
  viability, T/C: 10.9%
[2]
  viability, T/C: 10.4%
Second compound 0.1 µM, first compound 0.000316 µM
  viability, T/C: 67.8%
Second compound 0.1 µM, first compound 0.001 µM
  viability, T/C: 123%
Second compound 0.1 µM, first compound 0.00316 µM
  viability, T/C: 56%
Second compound 0.1 µM, first compound 0.01 µM
  viability, T/C: 19.4%
[3]
  viability, T/C: 10.4%
[4]
  viability, T/C: 9%
Second compound 0.316 µM, first compound 0.000316 µM
  viability, T/C: 87.8%
Second compound 0.316 µM, first compound 0.001 µM
  viability, T/C: 114%
Second compound 0.316 µM, first compound 0.00316 µM
  viability, T/C: 73.9%
Second compound 0.316 µM, first compound 0.01 µM
  viability, T/C: 20.5%
[5]
  viability, T/C: 8.95%
[6]
  viability, T/C: 8.66%
Second compound 1 µM, first compound 0.000316 µM
  viability, T/C: 74.8%
Second compound 1 µM, first compound 0.001 µM
  viability, T/C: 111%
Second compound 1 µM, first compound 0.00316 µM
  viability, T/C: 85.9%
Second compound 1 µM, first compound 0.01 µM
  viability, T/C: 29.2%
[7]
  viability, T/C: 8.08%
[8]
  viability, T/C: 9.16%
Second compound 3.16 µM, first compound 0.000316 µM
  viability, T/C: 109%
Second compound 3.16 µM, first compound 0.001 µM
  viability, T/C: 104%
Second compound 3.16 µM, first compound 0.00316 µM
  viability, T/C: 48.4%
Second compound 3.16 µM, first compound 0.01 µM
  viability, T/C: 30.2%
[9]
  viability, T/C: 9.48%
[10]
  viability, T/C: 8.95%
Second compound 10 µM, first compound 0.000316 µM
  viability, T/C: 56.1%
Second compound 10 µM, first compound 0.001 µM
  viability, T/C: 72%
Second compound 10 µM, first compound 0.00316 µM
  viability, T/C: 28.5%
Second compound 10 µM, first compound 0.01 µM
  viability, T/C: 10.7%
[11]
  viability, T/C: 6.47%
[12]
  viability, T/C: 4.1%

## C[C@@H](NC(=O)c1ncnc(N)c1Cl)c1ncc(C(=O)Nc2cc(C(F)(F)F)c(Cl)cn2)s1 + C#Cc1c(F)ccc2cc(O)cc(-c3ncc4c(N5CC6CCC(C5)N6)nc(OCC56CCCN5CC(F)C6)nc4c3F)c12
Second compound 0.0316 µM
  pIC50: 5.61
Second compound 0.1 µM
  pIC50: 5.57
Second compound 0.316 µM
  pIC50: 5.66
Second compound 1 µM
  pIC50: 5.57
Second compound 3.16 µM
  pIC50: 5.53
Second compound 10 µM
  pIC50: 6.40
[1]
  viability, T/C: 83.8%
[2]
  viability, T/C: 116%
Second compound 0.0316 µM, first compound 0.316 µM
  viability, T/C: 89%
Second compound 0.0316 µM, first compound 1 µM
  viability, T/C: 67.8%
Second compound 0.0316 µM, first compound 3.16 µM
  viability, T/C: 47.2%
Second compound 0.0316 µM, first compound 10 µM
  viability, T/C: 35.4%
[3]
  viability, T/C: 101%
[4]
  viability, T/C: 118%
Second compound 0.1 µM, first compound 0.316 µM
  viability, T/C: 95.9%
Second compound 0.1 µM, first compound 1 µM
  viability, T/C: 73.2%
Second compound 0.1 µM, first compound 3.16 µM
  viability, T/C: 47.4%
Second compound 0.1 µM, first compound 10 µM
  viability, T/C: 36.6%
[5]
  viability, T/C: 110%
[6]
  viability, T/C: 119%
Second compound 0.316 µM, first compound 0.316 µM
  viability, T/C: 76.4%
Second compound 0.316 µM, first compound 1 µM
  viability, T/C: 62.4%
Second compound 0.316 µM, first compound 3.16 µM
  viability, T/C: 52%
Second compound 0.316 µM, first compound 10 µM
  viability, T/C: 32.8%
[7]
  viability, T/C: 90.7%
[8]
  viability, T/C: 93.8%
Second compound 1 µM, first compound 0.316 µM
  viability, T/C: 107%
Second compound 1 µM, first compound 1 µM
  viability, T/C: 76.7%
Second compound 1 µM, first compound 3.16 µM
  viability, T/C: 47.6%
Second compound 1 µM, first compound 10 µM
  viability, T/C: 34.5%
[9]
  viability, T/C: 86.6%
[10]
  viability, T/C: 92.8%
Second compound 3.16 µM, first compound 0.316 µM
  viability, T/C: 87%
Second compound 3.16 µM, first compound 1 µM
  viability, T/C: 75.2%
Second compound 3.16 µM, first compound 3.16 µM
  viability, T/C: 48.5%
Second compound 3.16 µM, first compound 10 µM
  viability, T/C: 28.4%
[11]
  viability, T/C: 76.5%
[12]
  viability, T/C: 61.5%
Second compound 10 µM, first compound 0.316 µM
  viability, T/C: 57.5%
Second compound 10 µM, first compound 1 µM
  viability, T/C: 33.2%
Second compound 10 µM, first compound 3.16 µM
  viability, T/C: 30.2%
Second compound 10 µM, first compound 10 µM
  viability, T/C: 8.17%
